We go through four compounds from US12569170B2, “Paramagnetic sodium NMR macrocyclic-based biosensors, and associated methods” (Yale University, priority 2021, dated 2026).

Entries after “also recorded” stand apart in the source; their conditions may differ.

The test system of one assay is U87-bearing rat brain. Kind of assay: In vivo ^23Na-MRSI line broadening in glioma models. From the text: FIGS. 10C-10F illustrates images according to certain embodiments of the disclosure. […] However, the ^23Na linewidth analysis by TmDOTP^5− is confounded by its high ^23Na shiftability. This peak separation in vivo overestimates the full-width at half-maximum (FWHM) calculations and exaggerates the measured ^23Na linewidths.
Slice 1 is most superficial, and slice 3 is the deepest. The tumor outline is depicted in white in all columns.
This establishes GdDOTP^5−-induced ^23Na linewidth broadening as a potential surrogate marker for the altered Na^+ biodistribution within tumors. Thus, in brain tumor models, TmDOTP^5− with ^23Na-NMR can separate Na^+ in intracellular, blood, and interstitial pools, while GdDOTP^5− can distinguish Na^+ within intracellular and extracellular (i.e., blood and interstitial) pools.
Because the majority of the present studies looked at ^23Na chemical shift, the line broadening capabilities of these paramagnetic agents were also interrogated. […] This is due to the high magnetic moment of Gd^3+ which contributes to some degree of anisotropy to the paramagnetic susceptibility. […] Crucially, this family of paramagnetic agents has allowed to insightful probing of the tumor microenvironment and drawing of significant conclusions about tumor aggressiveness based on spectroscopic analysis.

Assay [1] in a line: Comparison of ^23Na shiftability and broadening potential of DOTP agents. The assay is classed as physicochemical.
A short description of assay [2]: Bulk magnetic susceptibility (BMS) contribution to chemical shift in phantoms. The format is physicochemical. As to conditions: phantoms. From the text:
Upon translation of the present in vitro results to in vivo situations, certain confounding factors must be addressed. In the interstitial space, there are additional cations such as calcium (Ca^2+), magnesium (Mg^2+) and K^+ which will also bind to anionic contrast agents like TmDOTP^5−. However, physiologically their concentrations are low compared to Na^+. […] Additionally, there is a contribution to the chemical shift from bulk magnetic susceptibility (BMS) changes brought about by TmDOTP^5− in addition to the hyperfine shifts induced by interactions with Na^+. Experiments were performed on different DOTP^8− salts in phantoms parallel and perpendicular to the main magnetic field B0, and also spherical phantoms in which there was no BMS contribution. Only a small portion (˜2%) of the total chemical shift for TmDOTP^5− was due to BMS arising due to anisotropy of the paramagnetic susceptibility, and the remainder was the hyperfine shift.

The next assay has as its system U87 tumors. Kind of assay: Sorafenib treatment of U87 GBM models monitored by ^1H-MRI and ^23Na-MRSI. The assay is classed as in vivo, rat. The conditions noted are these: for tumor growth: U87, 0.1 g/kg body weight daily oral gavage from day 9, imaged 6 days after, vs DMSO control. As for the experimental part: FIG. 9 depicts spatial distributions of compartmentalized ^23Na signals (Na^+b, Na^+e, Na^+i) as well as transendothelial (ΔNa^+end) and transmembrane (ΔNa^+mem) gradients in a pair of U87 tumors, one of which was treated with sorafenib, an anti-angiogenic tyrosine kinase inhibitor that targets vascular endothelial growth factor receptor (VEGFR) and platelet-derived growth factor receptor (PDGFR). Sorafenib dosage was 0.1 g/kg body weight, dissolved in dimethylsulfoxide (DMSO) for the treated animal, whereas the untreated control received an equivalent dose of pure DMSO. Daily treatment began on day 9 post-tumor-inoculation, and imaging was performed an additional 6 days after.
Having established the utility of ^23Na-MRSI in vivo with TmDOTP^5−, additional applications of Na^+ imaging were explored, such as monitoring therapeutic efficacy or using other agents to probe different spectroscopic characteristics. A separate cohort of U87 GBM models were treated with sorafenib, an anti-angiogenic tyrosine kinase inhibitor, with some animals kept as controls. Sorafenib treatment (0.1 g/kg body weight) began on day 9 following tumor inoculation and was dissolved in dimethylsulfoxide (DMSO) to be delivered via oral gavage. […] Therefore, ^23Na-MRSI with TmDOTP^5− has potential to effectively image the efficacy of cancer drugs.

The nature of assay [3]: Concentration effects of Dotarem and Gadavist on ^23Na spectra, concentric tubes phantom. As to conditions: 20 mM, 10 mM, 5 mM in outer compartment, tubes parallel to the magnetic field. The format is physicochemical. The procedure:
Spectra are shown for 20 mM, 10 mM, and 5 mM, where 0 ppm corresponds to the natural, unshifted ^23Na resonance of the inner compartment to which no agent was added.

`O=P([O-])([O-])CN1CCN(CP(=O)([O-])[O-])CCN(CP(=O)([O-])[O-])CCN(CP(=O)([O-])[O-])CC1.[Gd+3]` [GdDOTP^5−]: in the assay with U87-bearing rat brain (glioma models, after agent infusion), the “^23Na line broadening in tumor versus normal tissue” value is recorded as “most prominent within in the tumor; also recorded: considerable linewidth broadening within gliomas; also recorded: larger within the tumor as well compared to healthy tissue”. In the assay with U87-bearing rat brain (same rat, gradients from TmDOTP^5− shifts), the “correlation of tumoral line broadening with increases in ΔNa^+end and decreases in ΔNa^+mem” value is given as “correlated well”. In assay [1], the “broadening potential (sensitivity of linewidth to agent concentration), words” value is reported as “high broadening potentials; also recorded: comparable broadening potential as TmDOTP^5−” and the “shiftability (sensitivity of ^23Na chemical shift to agent concentration), words” value is reported as “without inducing ^23Na shift differences between compartments; also recorded: smaller shiftability”. In assay [2], the “BMS contribution to chemical shift” value is given as “dominated by BMS effect”.
As for `CNC(=O)c1cc(Oc2ccc(NC(=O)Nc3ccc(Cl)c(C(F)(F)F)c3)cc2)ccn1` [sorafenib], the tumor growth entry in the assay with U87 tumors is recorded as “slow tumor growth compared to untreated animals”; in the assay with U87 tumors (listed as Sorafenib) it was “retarded the growth rate of the tumor”. The “region of alterations in Na^+ distribution (elevated Na b and ΔNa^+end, decreased Na^+e and ΔNa^+mem)” value with U87 tumors (U87, treated vs untreated tumor, ^23Na-MRSI with TmDOTP^5−) is “confined to a smaller region for the treated tumor”.
Turning to “Gd^3+2-[4,7,10-tris(carboxymethyl)-1,4,7,10-tetrazacyclododec-1-yl]acetate [Dotarem]”, the “^23Na shiftability” value in assay [3] is “shiftability stronger than the other Gd^3+-based agents with macrocyclic chelates”.
Turning to `O=C([O-])CN1CCN(CC(=O)[O-])CCN([C@H](CO)[C@H](O)CO)CCN(CC(=O)[O-])CC1.[Gd+3]` [Gadavist, Gd^3+2,2′,2″-(10-((2R,3S)-1,3,4-trihydroxybutan-2-yl)-1,4,7,10-tetraazacyclododecane-1,4,7-triyl)triacetate], in assay [3], the “^23Na shiftability” value is given as “shiftability stronger than the other Gd^3+-based agents with macrocyclic chelates”.
